This note sets out measurements from patent US4298735A, “Folic acid derivatives” (Union Carbide Corporation, priority 1979, dated 1981).

In data set [1] the target is whole milk folate binder (Bos taurus, UniProt P02702). The data set is described as follows: Folate competitive protein binding (CPB) radioassay. As to conditions: for dose response curves generated using pteroyltyrosine [125I] as label: at high pH compared with lower pH. Here is the method: The use of the Centria® analytical system, Union Carbide Corporation, in this example, is meant to be illustrative and other methods, both automated and manual, obvious to those skilled in the clinical diagnostic art are also within the scope of this invention.
Chain of whole milk folate binder (P02702 20-234): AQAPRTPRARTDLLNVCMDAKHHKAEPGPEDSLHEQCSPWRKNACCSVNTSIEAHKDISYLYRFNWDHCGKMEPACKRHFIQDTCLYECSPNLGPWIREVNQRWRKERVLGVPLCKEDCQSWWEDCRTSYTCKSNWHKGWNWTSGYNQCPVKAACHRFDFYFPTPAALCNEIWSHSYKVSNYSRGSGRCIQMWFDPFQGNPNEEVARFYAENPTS
Briefly, the Centria® system is a tri-modular instrument in which reagents are pipetted on to a multi-well transfer disk and mixed centrifugally with standards or patients' samples. After a suitable incubation period, the components are separated by a centrifugal elution of the bound and free fractions and the bound fractions counted three at a time.
Folic acid and N^5 -methyltetrahydrofolic acid standards in the range 0-20 nanograms/milliliter were prepared in 0.05 M sodium borate, pH 9.3 containing 0.1% human serum albumin. The whole milk binder was prepared according to the method of Rothenberg et al., ^(3) and dissolved in sodium borate, pH 9.3 containing 0.1% human serum albumin
(50 microliters, 20,000 cpm) plus 85 microliters of water with the limited number of binding sites contained in a 200 microliter solution of whole milk folate binder. The binding reactions may be shown as follows:
A gamma counter which counts three of the 36 positions at a time for one minute, so constructed that only the eluate bottom portion of the test tubes fits into the counter, was then used to count all samples. Sequential counting of the tubes thus required about 12 minutes. A small computer with printout capability then printed out the data after completion of the cycle.

Data set [2] in a line: Storage stability of the radioiodinated label. The format is physicochemical. Particulars: stored in a 50% aqueous propylene glycol solution, ten-week period. The text has this: Radioiodination of biological compounds frequently leads to marked chemical instability and subsequent degradation of the radiolabel. This problem is often accentuated in the radiolabel when the materials to be radioiodinated are known to be sensitive to oxygen, light or extremes in pH, as is the case with folic acid and some derivatives.
The reaction mixture was applied to a 1×20 cm Sephadex G25, fine, (Pharmacia Fine Chemicals, Uppsala, Sweden) column hydrated with distilled water and equilibrated with 0.1 M potassium phosphate, pH 7.5. The column was eluted with 0.1 M potassium phosphate buffer and 3 ml fractions collected. The product "peak" fractions 32-34 were collected, diluted 1:1 with propylene glycol and stored below 0° C.

Data set [3] deals with carboxypeptidase A. As to the kind of experiment: Enzymatic hydrolysis of pteroyltyrosine followed by UV. It counts as biochemical. Particulars: 0.025 M Tris-HCl, 2 mM zinc chloride, pH 7.3, two hours, ambient temperature. As to the method: Two milliliters of a solution of pteroyltrosine (0.75 mmoles/ml) in 0.025 M Tris-HCl containing 2 mM zinc chloride, pH 7.3 were diluted to 10 ml with distilled water. A portion of this solution (2 ml) was placed in a 1 cm cuvette and in another was placed 2 ml of distilled water. To each of the cuvettes was added 50 μl of a solution of 100 μl carboxypeptidase A suspension (Aldrich chemical, lot 060637) diluted with 0.9 ml of 10% lithium chloride.
The time course of the reaction was followed spectrophotometrically (uv) over a period of two hours at ambient temperature. An increase and shift in max from 280 to 277 nm and a marked decrease in absorption at 220 nm was observed. Two isosbestic points at 242 and 282 nm were visible.

In the case of `CN1c2c(nc(N)[nH]c2=O)NCC1CNc1ccc(C(=O)N[C@@H](CCC(=O)O)C(=O)O)cc1` (some centres unmarked) [N^5 -methyl THF, N-5-methyltetrahydrofolic acid], in data set [1], the “dose response curves generated using pteroyltyrosine [125I] as label” value is recorded as “more nearly coincident”.

Regarding `Nc1nc2ncc(CNc3ccc(C(=O)N[C@@H](CCC(=O)O)C(=O)O)cc3)nc2c(=O)[nH]1` [folic acid], the “dose response curves generated using pteroyltyrosine [125I] as label” value in data set [1] was “more nearly coincident”.

In the case of `Nc1nc(O)c2nc(CNc3ccc(C(=O)N[C@@H](Cc4ccc(O)c([125I])c4)C(=O)O)cc3)cnc2n1` [pteroyltyrosine [^125 I]], in data set [1] (folic acid concentration range of 0-20 ng/ml), the “performance as radiolabel in CPB radioassay for folic acid” value was “effective radiolabel”. For the same molecule, in data set [2], the “stability of radioiodinated product (assay performance on storage)” value is listed as “no deterioration in assay performance”.

In the case of `Nc1nc2ncc(CNc3ccc(C(=O)N[C@@H](Cc4ccc(O)cc4)C(=O)O)cc3)nc2c(=O)[nH]1` [pteroyltyrosine, Pteroyl-L-Tyrosine], the “hydrolysis by carboxypeptidase A (UV time course, final spectrum)” value in data set [3] was “final spectrum was very similar to that of pteroic acid”.
